Values after ≈ are worked out from the molar mass of the structure shown. Like-named read-outs stand apart in the source and are kept apart here.
What was measured:
Assay type in all cases: cell-based
[1] = system: Staphylococcus epidermidis ATCC12228; test: MIC, microbroth dilution (NCCLS); conditions: rifS strain, Cation-Adjusted Mueller-Hinton Broth, 37° C., read-out: Antimicrobial activity (MIC)
[2] = system: Haemophilus influenzae ATCC10211; test: MIC, microbroth dilution (NCCLS); conditions: rifS strain, BHI Broth with NAD and hematin, 37° C., read-out: Antimicrobial activity (MIC)
[3] = system: Streptococcus pneumoniae ATCC6303; test: MIC, microbroth dilution (NCCLS); conditions: rifS strain, THY Broth with 1 mg/mL catalase, 5% CO2, 37° C., read-out: Antimicrobial activity (MIC)
[4] = system: Staphylococcus aureus ATCC29213; test: MIC, microbroth dilution (NCCLS); conditions: rifS strain, Cation-Adjusted Mueller-Hinton Broth, 37° C., read-out: Antimicrobial activity (MIC)
[5] = system: Staphylococcus aureus ATCC29213 rpoB^D417Y; test: microbe, parasite or virus in culture
Outline: (§1)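 MICs by NCCLS broth microdilution, incubation at 37 °C, in cation-adjusted Mueller-Hinton broth. Strains: rifampin-resistant S. aureus ATCC 29213 with rpoB D417Y or H418Y, and quinolone-resistant EN1252a carrying gyrA S84L plus grlA S80F.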

[6] = system: Staphylococcus aureus ATCC29213 rpoB^H418Y; test: microbe, parasite or virus in culture
Outline: as §1

[7] = system: Staphylococcus aureus EN1252a gyrA^S84L grlA^S80F; test: microbe, parasite or virus in culture; conditions: read-out: Antimicrobial activity (MIC)
Outline: as §1

[8] = system: Enterococcus faecalis ATCC29212; test: MIC, microbroth dilution (NCCLS); conditions: rifS strain, BHI Broth, 37° C., read-out: Antimicrobial activity (MIC)
[9] = system: Streptococcus pyogenes ATCC19615; test: MIC, microbroth dilution (NCCLS); conditions: rifS strain, THY Broth, 37° C., read-out: Antimicrobial activity (MIC)
[10] = system: Mycobacterium smegmatis ATCC700084; test: MIC, microbroth dilution (NCCLS); conditions: Mycolicibacterium smegmatis, rifS strain, Middlebrook Broth plus ADC Enrichment, 37° C., read-out: Antimicrobial activity (MIC)
[11] = system: Escherichia coli ATCC25922; test: MIC, microbroth dilution (NCCLS); conditions: rifS strain, Cation-Adjusted Mueller-Hinton Broth, 37° C., read-out: Antimicrobial activity (MIC)
[12] = system: H. influenzae ATCC 10211 and E. coli ATCC 25922; test: MIC, Gram-negative bacteria (panel); conditions: across two Gram-negative strains
Method: (§2) Representative compounds were assayed for antimicrobial activity as follows: Minimum Inhibitory Concentrations (“MICs”) were determined by the microbroth dilution method as per NCCLS guidelines (National Committee for Clinical Laboratory Standards. 2000. Methods for dilution antimicrobial susceptibility tests for bacteria that grow aerobically, 5th ed. M7-A5. National Committee for Clinical Laboratory Standards, Wayne, Pa.), except that all growth incubations were conducted at 37° C. Bacterial cultures were tested in the following bacteriological media: S. aureus, S. epidermidis, and E. coli in Cation-Adjusted Mueller-Hinton Broth, S. pneumoniae in THY Broth supplemented with 1 mg/mL catalase under 5% CO2 atmosphere, S. pyogenes in THY Broth, E. faecalis in BHI Broth, H. influenzae in BHI Broth supplemented with 0.75 μL of 1 mg/mL NAD and 150 μL of 1 mg/ml hematin per 5 mL, and M. smegmatis in Middlebrook Broth plus ADC Enrichment.
(§3) S. aureus ATCC […], S. epidermidis ATCC 12228, S. pneumoniae ATCC6303, S. pyogenes ATCC 19615 and E. faecalis ATCC 29212 are rifampin-susceptible Gram-positive strains. […] H. influenzae ATCC 10211 and E. coli ATCC 25922 are Gram-negative bacteria.

[13] = MIC, rifampin-susceptible Gram-positive strains (panel); conditions: across five rifampin-susceptible Gram-positive strains
Method: as §2, §3

[14] = ATCC29213, read-out: Antimicrobial activity (MIC)

Q: Which MIC [1] does the source give for `COc1c(N2CCN(C(=O)C3CCN(C4=C5NC(=O)/C(C)=C\C=C\[C@H](C)[C@H](O)[C@@H](C)[C@@H](O)[C@@H](C)[C@H](OC(C)=O)[C@H](C)[C@@H](OC)/C=C/O[C@@]6(C)Oc7c(C)c(O)c(c(c7C6=O)C4=O)C5=O)CC3)CC2)c(F)cc2c(=O)c(C(=O)O)cn(C3CC3)c12` [Example 51, 3-{4-[4-(3-Carboxy-1-cyclopropyl-6-fluoro-8-methoxy-4-oxo-1,4-dihydroquinolin-7-yl)-piperazin-1-ylcarbonyl]-piperidin-1-yl}rifamycin S] here?
A: The MIC was 0.008 to 0.063 µg/mL (≈ 0.00686 to 0.054 µM).

Q: And the MIC [2]?
A: The MIC was 0.125 to 2 µg/mL (≈ 0.107 to 1.71 µM).

Q: What about the MIC [3] of the same compound?
A: The MIC was 0.008 to 0.125 µg/mL (≈ 0.00686 to 0.107 µM).

Q: What about the MIC [4] of the same compound?
A: The MIC was 0.004 to 0.5 µg/mL (≈ 0.00343 to 0.429 µM).

Q: What about the MIC [5, 14] of the same compound?
A: The MIC was 0.06 to 32 µg/mL (≈ 0.0514 to 27.4 µM).

Q: And the MIC [6, 14]?
A: The MIC was 0.06 to 16 µg/mL (≈ 0.0514 to 13.7 µM).

Q: What about the MIC [7] of the same compound?
A: Its MIC is 0.004 to 0.5 µg/mL (≈ 0.00343 to 0.429 µM).

Q: And the MIC [8]?
A: Its MIC is 2 to 32 µg/mL (≈ 1.71 to 27.4 µM).

Q: What about the MIC [9] of the same compound?
A: Its MIC is 0.008 to 0.063 µg/mL (≈ 0.00686 to 0.054 µM).

Q: And the MIC [10]?
A: Its MIC is 0.5 to 64 µg/mL.

Q: What about the MIC [11] of the same compound?
A: The MIC was 0.125 to 8 µg/mL (≈ 0.107 to 6.86 µM).

Q: Which MIC [1] does the source give for `COc1c(N2CC(NC(=O)C3CCN(C4=C5NC(=O)/C(C)=C\C=C\[C@H](C)[C@H](O)[C@@H](C)[C@@H](O)[C@@H](C)[C@H](OC(C)=O)[C@H](C)[C@@H](OC)/C=C/O[C@@]6(C)Oc7c(C)c(O)c(c(c7C6=O)C4=O)C5=O)CC3)C2)c(F)cc2c(=O)c(C(=O)O)cn(C3CC3)c12` [Example 53, 3-{4-[1-(3-Carboxy-1-cyclopropyl-6-fluoro-8-methoxy-4-oxo-1,4-dihydroquinolin-7-yl)-azetidin-3-ylcarbamoyl]-piperidin-1-yl}rifamycin S] here?
A: The MIC was 0.008 to 0.063 µg/mL (≈ 0.00694 to 0.0547 µM).

Q: And the MIC [2]?
A: The MIC was 0.125 to 2 µg/mL (≈ 0.108 to 1.74 µM).

Q: What about the MIC [3] of the same compound?
A: Its MIC is 0.008 to 0.125 µg/mL (≈ 0.00694 to 0.108 µM).

Q: And the MIC [4]?
A: The MIC was 0.004 to 0.5 µg/mL (≈ 0.00347 to 0.434 µM).

Q: And the MIC [5, 14]?
A: The MIC was 0.06 to 32 µg/mL (≈ 0.0521 to 27.8 µM).

Q: And the MIC [6, 14]?
A: The MIC was 0.06 to 16 µg/mL (≈ 0.0521 to 13.9 µM).

Q: What about the MIC [7] of the same compound?
A: Its MIC is 0.004 to 0.5 µg/mL (≈ 0.00347 to 0.434 µM).

Q: What about the MIC [8] of the same compound?
A: The MIC was 2 to 32 µg/mL (≈ 1.74 to 27.8 µM).

Q: And the MIC [9]?
A: Its MIC is 0.008 to 0.063 µg/mL (≈ 0.00694 to 0.0547 µM).

Q: What about the MIC [10] of the same compound?
A: The MIC was 0.5 to 64 µg/mL.

Q: And the MIC [11]?
A: Its MIC is 0.125 to 8 µg/mL (≈ 0.108 to 6.94 µM).

Q: Which MIC [1] does the source give for `CO[C@H]1/C=C/O[C@@]2(C)Oc3c(C)c(O)c4c(c3C2=O)C(=O)C(N2CCN(c3nc5c(cc3F)c(=O)c(C(=O)O)cn5C3CC3)CC2)=C(NC(=O)/C(C)=C\C=C\[C@H](C)[C@H](O)[C@@H](C)[C@@H](O)[C@@H](C)[C@H](OC(C)=O)[C@@H]1C)C4=O` [Example 55, 3-[1-(3-Carboxy-1-cyclopropyl-6-fluoro-4-oxo-1,4-dihydro-[1,8]naphthyridine-7-yl)-piperazin-4-yl]-rifamycin S] here?
A: The MIC was 0.008 to 0.063 µg/mL (≈ 0.0078 to 0.0614 µM).

Q: And the MIC [2]?
A: The MIC was 0.125 to 2 µg/mL (≈ 0.122 to 1.95 µM).

Q: What about the MIC [3] of the same compound?
A: Its MIC is 0.008 to 0.125 µg/mL (≈ 0.0078 to 0.122 µM).

Q: And the MIC [4]?
A: Its MIC is 0.004 to 0.5 µg/mL (≈ 0.0039 to 0.487 µM).

Q: What about the MIC [5, 14] of the same compound?
A: The MIC was 0.06 to 32 µg/mL (≈ 0.0585 to 31.2 µM).

Q: What about the MIC [6, 14] of the same compound?
A: Its MIC is 0.06 to 16 µg/mL (≈ 0.0585 to 15.6 µM).

Q: What about the MIC [7] of the same compound?
A: The MIC was 0.004 to 0.5 µg/mL (≈ 0.0039 to 0.487 µM).

Q: And the MIC [8]?
A: Its MIC is 2 to 32 µg/mL (≈ 1.95 to 31.2 µM).

Q: And the MIC [9]?
A: The MIC was 0.008 to 0.063 µg/mL (≈ 0.0078 to 0.0614 µM).

Q: What about the MIC [10] of the same compound?
A: The MIC was 0.5 to 64 µg/mL.

Q: And the MIC [11]?
A: The MIC was 0.125 to 8 µg/mL (≈ 0.122 to 7.8 µM).

Q: With `CO[C@H]1/C=C/O[C@@]2(C)Oc3c(C)c(O)c4c(c3C2=O)C(=O)C(N2CCCC3(CCN(c5nc6c(cc5F)c(=O)c(C(=O)O)cn6-c5ccc(F)cc5F)C3)C2)=C(NC(=O)/C(C)=C\C=C\[C@H](C)[C@H](O)[C@@H](C)[C@@H](O)[C@@H](C)[C@H](OC(C)=O)[C@@H]1C)C4=O` (some centres unmarked) [Example 60] as the compound, how does the MIC [1] read?
A: The MIC was 0.008 to 0.063 µg/mL (≈ 0.00694 to 0.0547 µM).

Q: And the MIC [2]?
A: The MIC was 0.125 to 2 µg/mL (≈ 0.108 to 1.74 µM).

Q: And the MIC [3]?
A: Its MIC is 0.008 to 0.125 µg/mL (≈ 0.00694 to 0.108 µM).

Q: And the MIC [4]?
A: The MIC was 0.004 to 0.5 µg/mL (≈ 0.00347 to 0.434 µM).

Q: What about the MIC [5, 14] of the same compound?
A: The MIC was 0.06 to 32 µg/mL (≈ 0.0521 to 27.8 µM).

Q: What about the MIC [6, 14] of the same compound?
A: The MIC was 0.06 to 16 µg/mL (≈ 0.0521 to 13.9 µM).

Q: And the MIC [7]?
A: Its MIC is 0.004 to 0.5 µg/mL (≈ 0.00347 to 0.434 µM).

Q: What about the MIC [8] of the same compound?
A: Its MIC is 2 to 32 µg/mL (≈ 1.74 to 27.8 µM).

Q: What about the MIC [9] of the same compound?
A: Its MIC is 0.008 to 0.063 µg/mL (≈ 0.00694 to 0.0547 µM).

Q: What about the MIC [10] of the same compound?
A: The MIC was 0.5 to 64 µg/mL.

Q: And the MIC [11]?
A: The MIC was 0.125 to 8 µg/mL (≈ 0.108 to 6.94 µM).

Q: For `CO[C@H]1/C=C/O[C@@]2(C)Oc3c(C)c(O)c4c(O)c(c(/C=N/N5CCN(C)CC5)c(O)c4c3C2=O)NC(=O)/C(C)=C\C=C\[C@H](C)[C@H](O)[C@@H](C)[C@@H](O)[C@@H](C)[C@H](OC(C)=O)[C@@H]1C` [rifampin, reference compound], which MIC [12] is on record?
A: Its MIC is 0.24 to 16 µg/mL (≈ 0.292 to 19.4 µM).

Q: What about the MIC [1] of the same compound?
A: Its MIC is 0.03 µg/mL (≈ 0.0365 µM).

Q: And the MIC [2]?
A: The MIC was 0.24 µg/mL (≈ 0.292 µM).

Q: And the MIC [3]?
A: The MIC was 0.061 µg/mL (≈ 0.0741 µM).

Q: What about the MIC [4] of the same compound?
A: Its MIC is 0.008 µg/mL (≈ 0.00972 µM).

Q: And the MIC ([5]; ATCC29213)?
A: Its MIC is over 64 µg/mL.

Q: And the MIC [5, 14]?
A: Its MIC is over 64 µg/mL.

Q: What about the MIC ([6]; ATCC29213) of the same compound?
A: The MIC was 8 µg/mL (≈ 9.72 µM).

Q: And the MIC [6, 14]?
A: Its MIC is 8 µg/mL (≈ 9.72 µM).

Q: What about the MIC [7] of the same compound?
A: Its MIC is 0.004 µg/mL (≈ 0.00486 µM).

Q: What about the MIC [8] of the same compound?
A: Its MIC is 1 µg/mL (≈ 1.22 µM).

Q: And the MIC [9]?
A: The MIC was 0.013 µg/mL (≈ 0.0158 µM).

Q: And the MIC [10]?
A: Its MIC is 64 µg/mL.

Q: And the MIC [13]?
A: Its MIC is 0.008 to 1 µg/mL (≈ 0.00972 to 1.22 µM).

Q: What about the MIC [11] of the same compound?
A: The MIC was 16 µg/mL (≈ 19.4 µM).

— patent US7247634B2, “Rifamycin derivatives effective against drug-resistant microbes” (Cumbre Pharmaceuticals Inc., priority 2004, dated 2007)
